Where a name gives a salt, the structure may show the parent alone. Marks after values point to notes of the source that are not given here.
What was measured:
male rats [1] = assay: Rat sexual behavior, proerectile actions of XVIIa and XVIIb (ip); assay type: in vivo, SD rats; conditions: 16 mg/kg ip
Protocol: Male SD rats (250-300 g) were injected with XVIIa (16 mg/kg, ip), XVIIb (16 mg/kg, ip) or distilled water (ip), and observed 5 minutes later for the number of erections (as characterized by penile grooming) and the time to the first erection, over a 60 minute observation period. Six rats at a time, housed singly, were observed by two observers. Treatments were administered in a standard randomized and double blinded manner.

male primates = assay: Sexual behavior in male primates, paired observation study (penile response grades); assay type: in vivo, macaca fascilaris; conditions: 1.0 mg/kg ip; N=3; observed 1 hour
Protocol: Monkeys used for testing were separated from the cluster of cages and treated and observed in pairs in the middle of the housing environment.
N=3 for all drug-treated animals, while N=18 for saline-treated animals. […] Data are expressed as the number of test animals having a particular grade of penile response. Penile responses were scored every 10 sec for 1 hour according to the following scale:
Grade 0=glans are hidden from the view
Grade 1=glans are clearly visible
Grade 2=penis is extended
Grade 4=erection with masturbation
Grade 5=erection with masturbation and ejaculation

[2] = system: noradrenaline pre-contracted rabbit CC; assay: Direct action on penile erection: tone of corpus cavernosal muscle strips in organ bath; conditions: concentration from 10^-8 M to 10^-4 M; n=6
Protocol: Corpus cavernosal (CC) muscle strips were prepared from penises obtained from rabbit (n=6). CC strips were dissected free from tunica albungia and mounted in 10 or 25 mL organ baths containing Tyrode solution saturated with 95%O2/5% CO2 mixture.

male rats [3] = assay: Antagonism of XVIb-induced erections by comparative compounds in rats; assay type: in vivo, SD rats; conditions: for antagonism of the erectile promoting actions of XVIb: injected 30 minutes prior to XVIb 16 mg/kg ip, pindolol 0.1-3, scopolamine 0.1-3.0, haloperidol 0.01-0.3, ketanserin 0.1-3.0 mg/kg
Protocol: Male SD rats (300-500 g; n=6 per group) were injected with (±)-Pindolol, scopolamine, haloperidol, or ketanserin, 30 minutes prior to injection of a single dose of XVIb (16 mg/kg, ip) or saline.

male rats [4] = assay: Rat sexual behavior, proerectile actions (injected); assay type: in vivo, SD rats; conditions: for Erections/60 minutes / Latency to the first erection: mean±sem; for Erections/60 minutes / Latency to the first erection / Responders: n=10
Protocol: Male SD rats (350-450 g; n=10 per group) were injected with increasing doses of XVIb (4.0-64.0 mg/kg), XVIa (1.0, 4.0 or 16 mg/kg) or saline and observed 5 minutes later, in groups of 5, for the number of erections and the time to the first erection, over a 60 minutes observation period.
In Table 2, the effects of XVIb, XVIa and saline on erection in male rats is indicated. Data is expressed as the mean±sem for 10 test animals. Data marked with an asterisk “*” indicate significant difference from saline (α<0.05) as determined by ANOVA with Tukey test for multiple comparisons.

Molecule | number of test animals having Grade 0 penile response (glans are hidden from the view) (male primates) | number of test animals having Grade 1 penile response (glans are clearly visible) (male primates) | number of test animals having Grade 2 penile response (penis is extended) (male primates) | number of test animals having Grade 3 penile response (full erection) (male primates) | number of test animals having Grade 4 penile response (erection with masturbation) (male primates) | number of test animals having Grade 5 penile response (erection with masturbation and ejaculation) (male primates) | also measured
COc1ccc(CC(=O)N2CCN(C)CC2)cc1OC [XVIIb, 1-Methyl-4-(3,4-Dimethoxyacetyl)Piperazine Monohydrochloride] | – | – | – | – | – | – | Responders (male rats [1]): 100%; latency to first erection (male rats [1]): 16 min; maximum number of erections/rat (male rats [1]): 5 h⁻¹
(±)-trans-[2-(1-(4-methyl)piperazinyl)cyclohexyl]naphthalene-1-acetate monohydrochloride [XVc] | 1 | 2 | 2 | 2 | 2 | 1 | –
O=c1n(CCCN2CCN(c3cccc(Cl)c3)CC2)nc2ccccn12 [Trazodone] | – | – | – | – | – | – | effect on tone of noradrenaline pre-contracted rabbit CC [2]: reduced tone of rabbit CC in a dose dependent manner
CN1[C@@H]2C[C@@H](OC(=O)[C@H](CO)c3ccccc3)C[C@H]1[C@@H]1O[C@@H]12 [scopolamine] | – | – | – | – | – | – | antagonism of the erectile promoting actions of XVIb (male rats [3]): antagonized the erectile promoting actions; erections after scopolamine pretreatment plus XVIb (male rats [3]; scopolamine, XVIb 16 mg/kg ip, n=6): 1.2±0.3 erections/60 minutes
1-methyl-4-trifluoromethylphenylpiperazine | – | – | – | – | – | – | effect on tone of noradrenaline pre-contracted rabbit CC [2]: failed to reduce tone
CN1CCN(C(=O)Cc2ccc(Cl)c(Cl)c2)CC1 [XVIIa, 1-Methyl-4-(2-(3,4-Dichlorophenyl)acetyl)piperazine Monohydrochloride] | – | – | – | – | – | – | Responders (male rats [1]): 67%; latency to first erection (male rats [1]): 6 min; maximum number of erections/rat (male rats [1]): 3 h⁻¹
(±)-trans-N-methyl-[2-(1-(4-methyl)piperazinyl)cyclohexyl]naphthalene-1-acetamide monohydrochloride [Compound XVa] | 1 | 2 | 2 | 2 | 2 | 0 | –
CC(C)NCC(O)COc1cccc2[nH]ccc12 (racemic) [(±)-Pindolol] | – | – | – | – | – | – | erections after (±)-pindolol pretreatment plus XVIb (male rats [3]; highest dose tested of (±)-pindolol, XVIb 16 mg/kg ip, n=6): 2.0±0.4 erections/60 minutes; antagonism of the erectile promoting actions of XVIb (male rats [3]): antagonized the erectile promoting actions
(±)-trans-N-[2-(1-(4-methyl)piperazinyl)cyclohexyl]naphthalene-2-acetamide monohydrochloride [XVb] | 1 | 2 | 2 | 1 | 0 | 0 | –
CN1CCN(C(=O)Cc2cccc3ccccc23)CC1 [XVIa, 1-Methyl-4(1-naphthaleneacetyl)piperazine monohydrochloride] | 1 | 2 | 2 | 1 | 1 | 0 | Erections/60 minutes (male rats [4]; 1.0 mg/kg): 1.2 ± 0.3; Latency to the first erection (male rats [4]; 1.0 mg/kg): 1929 ± 432 s; Responders (male rats [4]; 1.0 mg/kg): 100%; Erections/60 minutes (male rats [4]; 4.0 mg/kg): 3.0 ± 0.6; Latency to the first erection (male rats [4]; 4.0 mg/kg): 1749 ± 349 s; Responders (male rats [4]; 4.0 mg/kg): 100%; Erections/60 minutes (male rats [4]; 16.0 mg/kg): 5.4 ± 0.7* #; Latency to the first erection (male rats [4]; 16.0 mg/kg): 506 ± 105* sec; Responders (male rats [4]; 16.0 mg/kg): 100%; effect on penile erections (in words) (male rats [4]; 60 minutes observation): increased penile erections, although to a lesser degree than XVIb
